Patent US9744250B2, “Chemical model of a neurodegenerative disease, method for preparation and uses of same” (priority 2012, dated 2017)

What was measured:
mitochondrial complex I = assay: Spectrophotometric analysis of complex I activity (NADH oxidation); format: biochemical, rat
Procedure: (§1) The animal was then decapitated in order to collect from the brain either the cortex or the striatum, which were quickly placed in a Potter Elvejhem® containing 6 ml of extraction buffer at 4° C. (250 mM sucrose, 40 mM KCl, 2 mM EGTA, lmg/ml BSA, 20 mM Tris, pH=7.2). This mixture was homogenized to break open the cells and release the mitochondria and then centrifuged at 2000 g for 8 minutes to remove the larger membrane debris and the nuclei from the pellet. The supernatant was then recovered and centrifuged at 13,000 g for 11 minutes. The supernatant was discarded while the pellet containing a mitochondria-rich fraction was resuspended in 500 μl of respiration buffer at 4° C. (300 mM D-mannitol, 10 mM KCl, 10 mM KH2PO4, 5 mM MgCl2, pH=7.2). […]
The kinetics of the oxidation reaction of NADH into NAD+ at 340 nm at 37° C. were continuously monitored by spectrophotometry using a JASCO V-530 spectrophotometer or a TECAN 1000M Infinite plate reader, set to a wavelength of 340 nm for 3 min. The amount of mitochondria extract to obtain the maximum activity introduced into the reaction volume was 100 μg with the spectrophotometer and 10 μg with the reader. […] The slope of the kinetics was then measured. […] The inhibition percentage was then calculated.

caspase-8 = assay: Caspase-8 activity (Ac-IETD-AFC cleavage) in SH-SY5Y cells; format: cell-based, human; details: 1 mM, 6 h (+24 h without MPP+)
Procedure: Measurement of the activities of the various caspases is based on the ability of the caspases to cleave specific fluorescent substrates: Ac-DEVD-AFC for caspase-3, Ac-IETD-AFC for caspase-8, or Ac-LEHD-AFC for caspase-9. SH-SY5Y neuronal cells were incubated in 48-well plates with either furosemide pyridinium (1 mM) for 96 h or with MPP+ (1 mM) for 6 h, then 24 h of incubation with no MPP+. After incubation, the cells were trypsinized, then rinsed with PBS and counted, then harvested in 100 μl of buffer containing 30 mM HEPES, 0.3 mM EDTA, 100 mM NaCl, 0.15% Triton X-100, and 10 mM DTT. The cell extract was then incubated for 1 hour at 37° C. with the specific substrate (100 μM) in a 96-well plate. Fluorescence was measured at λex400 nm and λem505 nm in a fluorescence detection plate reader (TECAN Infinite M1000) (Yue et al., supra). The results were expressed as percentages relative to the measured activity of cells cultured under the same conditions and not subjected to any treatment.

[1] = tested on: respiratory chain complexes II-V of rat cerebral cortex mitochondria; assay: Respiratory control after induction of complex II by succinate and inhibition of complex I by rotenone; format: biochemical; details: 1 mM, succinate
Procedure: as §1
Added to the polarography chamber (Hansatech) were 30 μl of mitochondria solution (0.2 mg), 460 μL of respiration buffer, 5 μl of test compound solution (meaning MPP+ or furosemide pyridinium) (or its solubilizing solvent). […] The effect of the compound on respiratory control was evaluated (ratio of stage 3 to 4), which corresponds to the coupling of the respiratory chain, or in other words the ATP synthesis at complex V and the oxygen consumption due to complexes I to IV. The results are expressed as percentages of the value measured for mitochondria not treated with the test compound (but treated with the solubilizing solvent). […]

SH-SY5Y neuronal cells = assay: Cell viability test in MTT; format: cell-based, human
Procedure: Cells from SH-SY5Y human neuroblastomas were cultured in a DMEM medium containing 4.5 g·L^−1 glucose, 10% fetal calf serum, and 1% penicillin/streptomycin, and placed in an incubator at 37° C. with 7% CO2.
In the various experiments, the SH-SY5Y cells were seeded at a density of 4×10^4 cells/mL. 24 h after seeding, the cells were exposed to the various test compounds at 37° C. for 24 h, 48 h, 72 h, or 96 h.
This test consisted of rapidly measuring cellular metabolic activity in the presence of the study compound at different concentrations, in order to conduct a dose-response study. To do this, the tetrazolium salt MTT, 3-(4,5-dimethylthiazol-2-yl)-2,5-diphenyltetrazolium bromide (Amoroso et al., Biochim Biophys Acta, 1999, 1452(2):151-60), was placed in contact with the cells. MTT is reduced to formazan by living cells that have the capacity to metabolize it, unlike dead cells. To conduct this test, SH-SY5Y neuronal cells in 48-well plates were incubated for 24 h, 48 h, 72 h, and 96 h, with furosemide pyridinium at concentrations ranging from 0 to 1000 μM. Then MTT (0.5 mg/ml final) was added to each well and incubated at 37° C. for 2 h. At the end of incubation, after carefully removing the medium, DMSO was added (200 μL) to dissolve the cell membranes and the formazan crystals formed by the living cells. The toxicity of the molecule was evaluated by determining the amount of reduced MTT, doing so by measuring the absorbance at 550 nm as this value is proportional to the number of living cells. The results were expressed as a function of the values obtained for cells treated only with the solvent used to dissolve the compound of interest. To compare the toxicity of furosemide pyridinium to that of MPP+, the cells were incubated in the presence of MPP+ (0 to 1000 μM) for 6 h. The culture medium was replaced and the cells were incubated at 37° C. for an additional 24 h (no MPP+). Cell survival was measured at the end of these 24 hours of incubation as described above. When evaluating the effect of different concentrations of α-tocopherol (vitamin E), a membrane antioxidant, the cells were pretreated for 24 h with this antioxidant before being exposed to furosemide pyridinium at a concentration of 0.5 mM under the same experimental conditions as above.

α-synuclein = assay: Cellular accumulation of α-synuclein (Western blot) in SH-SY5Y cells; format: cell-based, human; details: 1 mM, 6 h incubation (+24 h without MPP+)
Procedure: Cells were incubated under the same conditions as above with furosemide pyridinium (1 mM, incubation: 96 h) and MPP+ (1 mM, incubation: 6 h, wait 24 h). After incubation, the cells were trypsinized, rinsed with PBS, counted, then harvested in 100 μl of buffer containing: 250 mM sucrose; 70 mM KCl; 137 mm NaCl; 4.3 mm NaH2PO4; 1.4 mm KH2PO4, pH 7.2; and […] digitonin. Incubation at 4° C. was then conducted for 5 minutes before centrifuging at 13,000 g for 5 minutes to separate the cytosolic and lysosomal fraction from the mitochondrial fraction. Deposits of cytosolic fraction in the Western blot were adjusted according to the number of cells. The protein samples were diluted in 4× Laemmli and were then heated for 3 minutes at 95° C. to denature. They were loaded into the wells of gel. In addition to the samples, a molecular weight marker (Fermentas) was deposited in the gel. […] The transfer was carried out on PVDF membrane. The transfer was done in transfer buffer (25 mM Tris, 192 mM glycine, 10% methanol) overnight at 4° C. and 30V or for 2 hours at 4° C. and 80V. […] Then the membranes were immunolabeled for 1.5 h at room temperature with a primary antibody diluted in 1×PBS/0.2% Tween/3% milk. […] The primary antibody used was anti-α-synuclein, 1:500 (visualized with an anti-rabbit secondary antibody, 1:10,000).

[2] = tested on: mitochondria isolated from rat cerebral cortex; assay: Respiratory control (oxygen consumption, malate/pyruvate) of isolated cerebral cortex mitochondria; format: biochemical; details: increasing concentration
Procedure: as §1
Added to the polarography chamber (Hansatech) were 30 μl of mitochondria solution (0.2 mg), 460 μL of respiration buffer, 5 μl of test compound solution (meaning MPP+ or furosemide pyridinium) (or its solubilizing solvent). […] The effect of the compound on respiratory control was evaluated (ratio of stage 3 to 4), which corresponds to the coupling of the respiratory chain, or in other words the ATP synthesis at complex V and the oxygen consumption due to complexes I to IV. The results are expressed as percentages of the value measured for mitochondria not treated with the test compound (but treated with the solubilizing solvent).

Compound: Clc1ccc(-[n+]2ccccc2)cc1.[Cl-] [1-(4-chlorophenyl) pyridinium, 1-(4-chlorophenyl) pyridinium chloride]
- inhibition of complex I activity (mitochondrial complex I; concentration not given): 95%

Compound: Oc1ccc[n+](-c2ccc(Cl)cc2)c1.[Cl-] [1-(4-chlorophenyl)-3-hydroxypyridinium, 1-(4-chlorophenyl)-3-hydroxypyridinium chloride]
- inhibition of complex I activity (mitochondrial complex I; 0.2 mM): complete inhibition

Compound: C[n+]1ccc(-c2ccccc2)cc1 [MPP+, reference compound]
- change in caspase-8 activity (caspase-8): did not induce significant changes
- respiratory control of cortex mitochondria after induction by complex II [1]: not modified
- cell death (SH-SY5Y neuronal cells; 1 mM, 6 h incubation (+24 h without MPP+)): massive cell death
- EC50 (SH-SY5Y neuronal cells; 6 h incubation (+24 h without MPP+), read-out: EC50 (cell survival)): 386 ± 19.2 µM
- increase in the total amount of α-synuclein compared to control cells (α-synuclein): 319%
- respiratory control of cerebral cortex mitochondria induced by malate/pyruvate [2]: diminished

Compound: Cc1c(C)c2c(c(C)c1O)CC[C@@](C)(CCC[C@H](C)CCC[C@H](C)CCCC(C)C)O2 [α-tocopherol]
- concentration at which the protective effect becomes visible (SH-SY5Y neuronal cells; 24 h pretreatment, then 0.5 mM furosemide pyridinium): 0.1 mg/mL
- cell survival rate after 24 h pretreatment before 0.5 mM furosemide pyridinium (SH-SY5Y neuronal cells; 24 h pretreatment, then 0.5 mM furosemide pyridinium 96 h): increased the cell survival rate in a dose-dependent manner
- increase of cell survival, α-tocopherol alone (SH-SY5Y neuronal cells; pretreatment 1 μg/mL, without furosemide pyridinium): 20%
- change of cell survival, α-tocopherol alone (SH-SY5Y neuronal cells; pretreatment 0.01 and 0.1 μg/mL, without furosemide pyridinium): did not change cell survival
